Paper PMC9959817, “Flow-Based Fmoc-SPPS Preparation and SAR Study of Cathelicidin-PY Reveals Selective Antimicrobial Activity” (Molecules, 2023)
≈ marks a conversion by molar mass, not a printed value. Like-named read-outs stand apart in the source and are kept apart here. Where a SMILES comes first, the peptide text is derived from it. Bridges are numbered along the chain shown (N, C = ends). Where no end group is shown, it is not given here. [ ]: non-standard residue; d: D form. Dab = NCC[C@H](N)C(=O)O

Key:
[1] = tested on: C. albicans (SC5314); experiment: microbe, parasite or virus in culture; assay type: cell-based, Candida albicans; conditions: read-out: Minimum Inhibitory Concentration
Description: (§1) As we were primarily interested in the clinical potential of cathelicidin-PY (1) and its analogues 2–9, cation-adjusted Mueller-Hinton broth (CAMHB) was implemented during our in vitro antimicrobial screening towards bacteria. However, non-cation adjusted Mueller Hinton broth (MHB) was also implemented to evaluate the cation sensitivity of these AMPs. In each medium, compounds 1–9 were subjected to minimum inhibitory concentration (MIC) assays with E. coli (ATCC 25922), P. aeruginosa (SVB-B9), and S. aureus (ATCC 29213), in accordance with CLSI microbroth dilution protocols (Table 1). It is noteworthy, however, that the initial report of cathelicidin-PY’s isolation documented MIC assays performed in Luria Broth (LB). Furthermore, antifungal activity towards C. albicans was investigated.
Antimicrobial susceptibility of Candida albicans SC5314 (type strain) was assessed by broth microdilution in RPMI 1640 media in accordance with the CLSI recommended protocols. All assays were performed independently on three occasions, with the reported MIC defined as the lowest concentration for which agreement was observed consistently for all replicates.

[2] = tested on: S. aureus (ATCC 29213); experiment: microbe, parasite or virus in culture; assay type: cell-based, Staphylococcus aureus; conditions: read-out: Minimum Inhibitory Concentration
Description: as §1
(§2) Staphylococcus aureus ATCC 29213, Pseudomonas aeruginosa (SVB-B9) (type strain), and Escherichia coli ATCC 25,922 were grown in either non-cation-adjusted or cation-adjusted Mueller Hinton (MH) broth at 37 °C with shaking (200 rpm). MIC assays were performed in technical triplicate in accordance with the CLSI-recommended protocol. All assays were performed independently on three occasions, with the reported MIC defined as the lowest concentration for which agreement was observed consistently for all replicates.

[3] = tested on: P. aeruginosa (SVB-B9); experiment: microbe, parasite or virus in culture; assay type: cell-based, Pseudomonas aeruginosa; conditions: for MIC: P. aeruginosa SVB-B9 type strain, 37 °C, technical triplicate, three independent occasions, read-out: Minimum Inhibitory Concentration; for Minimum Inhibitory Concentration: SVB-B9
Description: as §1, §2

[4] = tested on: E. coli (ATCC 25922); assay type: cell-based, Escherichia coli; conditions: 37 °C, technical triplicate, three independent occasions
Description: as §1, §2

[5] = non-cation-adjusted Mueller-Hinton broth (MHB)

Molecule	MIC ([1]; SC5314)	MIC ([2]; ATCC 29213)	Minimum Inhibitory Concentration [3]	further results
C[C@@H]1[C@H](O)[C@@H](C)/C=C/C=C/C=C/C=C/C=C/C=C/C=C/[C@H](O[C@@H]2O[C@H](C)[C@@H](O)[C@H](N)[C@@H]2O)C[C@@H]2O[C@](O)(C[C@@H](O)C[C@@H](O)[C@H](O)CC[C@@H](O)C[C@@H](O)CC(=O)O[C@H]1C)C[C@H](O)[C@H]2C(=O)O [A, Amphotericin B, reference compound]	–	–	–	MIC ([1]; Candida albicans, C. albicans SC5314 type strain, RPMI 1640 media, three independent occasions): 1 µM (≈ 0.924 µg/mL); MIC ([2]; S. aureus ATCC 29213, non-cation-adjusted Mueller-Hinton broth (MHB), 37 °C, technical triplicate, three independent occasions): >64 µM; MIC ([2]; Staphylococcus aureus, ATCC29213, S. aureus ATCC 29213, cation-adjusted Mueller-Hinton broth (CAMHB), 37 °C, technical triplicate, three independent occasions): > 64 µM; MIC ([3]; Pseudomonas aeruginosa, cation-adjusted Mueller-Hinton broth (CAMHB)): 2 µM (≈ 1.85 µg/mL)
CC[C@H](C)[C@@H]1NC(=O)[C@H](Cc2c[nH]cn2)NC(=O)[C@H](CO)NC(=O)[C@H]([C@@H](C)O)NC(=O)[C@H]([C@@H](C)CC)NC(=O)[C@H](C(C)C)NC(=O)[C@H]([C@@H](C)O)NC(=O)[C@H](CCCNC(=N)N)NC(=O)[C@H](CC(C)C)NC(=O)[C@H](CCCCN)NC(=O)[C@H](CCC(=O)O)NC(=O)[C@H](CCCCN)NC(=O)[C@H](CC(C)C)NC(=O)[C@H](CCCCN)NC(=O)[C@@H]2CSSC[C@H](NC(=O)[C@H](CCCCN)NC(=O)[C@H](CCCNC(=N)N)NC(=O)CNC(=O)[C@H](CCC(N)=O)NC(=O)[C@@H]3CCCN3C(=O)[C@H](CCCNC(=N)N)NC(=O)[C@H](CC(C)C)NC(=O)[C@H](C(C)C)NC(=O)[C@H](CCCCN)NC(=O)[C@H](CC(=O)O)NC1=O)C(=O)N[C@@H](CC(N)=O)C(=O)N[C@@H](Cc1ccccc1)C(=O)N[C@@H](CC(C)C)C(=O)N2 [Compound 3] (cyclo(CKLKEKLRTVITSHIDKVLRPQGRKCNFL); disulfide 1-26)	>64 µM	>64 µM	–	–
CC[C@H](C)[C@H](NC(=O)[C@H](Cc1c[nH]cn1)NC(=O)[C@H](CO)NC(=O)[C@@H](NC(=O)[C@@H](NC(=O)[C@@H](NC(=O)[C@@H](NC(=O)[C@H](CCCNC(=N)N)NC(=O)[C@H](CC(C)C)NC(=O)[C@H](CCCCN)NC(=O)[C@H](CCC(=O)O)NC(=O)[C@H](CCCCN)NC(=O)[C@H](CC(C)C)NC(=O)[C@H](CCCCN)NC(=O)[C@@H]1CCCCNC(=O)CC[C@H](NC(=O)[C@H](CCCCN)NC(=O)[C@@H](N)CCCNC(=N)N)C(=O)N[C@@H](CC(N)=O)C(=O)N[C@@H](Cc2ccccc2)C(=O)N[C@@H](CC(C)C)C(=O)N1)[C@@H](C)O)C(C)C)[C@@H](C)CC)[C@@H](C)O)C(=O)N[C@@H](CC(=O)O)C(=O)N[C@@H](CCCCN)C(=O)N[C@H](C(=O)N[C@@H](CC(C)C)C(=O)N[C@@H](CCCNC(=N)N)C(=O)N1CCC[C@H]1C(=O)N[C@@H](CCC(N)=O)C(=O)NCC(=O)O)C(C)C [Compound 4] (H-RKENFLKKLKEKLRTVITSHIDKVLRPQG-OH; lactam 3-7)	>64 µM	>64 µM	–	–
CC[C@H](C)[C@H](NC(=O)[C@H](Cc1c[nH]cn1)NC(=O)[C@H](CO)NC(=O)[C@@H](NC(=O)[C@@H](NC(=O)[C@@H](NC(=O)[C@@H](NC(=O)[C@H](CCCNC(=N)N)NC(=O)[C@H](CC(C)C)NC(=O)[C@H](CCCCN)NC(=O)[C@H](CCC(=O)O)NC(=O)[C@H](CCCCN)NC(=O)[C@H](CC(C)C)NC(=O)[C@H](CCCCN)NC(=O)[C@@H]1CCCCNC(=O)C[C@H](NC(=O)[C@H](CCCCN)NC(=O)[C@@H](N)CCCNC(=N)N)C(=O)N[C@@H](CC(N)=O)C(=O)N[C@@H](Cc2ccccc2)C(=O)N[C@@H](CC(C)C)C(=O)N1)[C@@H](C)O)C(C)C)[C@@H](C)CC)[C@@H](C)O)C(=O)N[C@@H](CC(=O)O)C(=O)N[C@@H](CCCCN)C(=O)N[C@H](C(=O)N[C@@H](CC(C)C)C(=O)N[C@@H](CCCNC(=N)N)C(=O)N1CCC[C@H]1C(=O)N[C@@H](CCC(N)=O)C(=O)NCC(=O)O)C(C)C [Compound 5] (H-RKDNFLKKLKEKLRTVITSHIDKVLRPQG-OH; lactam 3-7)	>64 µM	>64 µM	–	–
CC[C@H](C)[C@H](NC(=O)[C@H](Cc1c[nH]cn1)NC(=O)[C@H](CO)NC(=O)[C@@H](NC(=O)[C@@H](NC(=O)[C@@H](NC(=O)[C@@H](NC(=O)[C@H](CCCNC(=N)N)NC(=O)[C@H](CC(C)C)NC(=O)[C@H](CCCCN)NC(=O)[C@H](CCC(=O)O)NC(=O)[C@H](CCCCN)NC(=O)[C@H](CC(C)C)NC(=O)[C@H](CCCCN)NC(=O)[C@@H]1CCC(=O)NCCCC[C@H](NC(=O)[C@H](CCCCN)NC(=O)[C@@H](N)CCCNC(=N)N)C(=O)N[C@@H](CC(N)=O)C(=O)N[C@@H](Cc2ccccc2)C(=O)N[C@@H](CC(C)C)C(=O)N1)[C@@H](C)O)C(C)C)[C@@H](C)CC)[C@@H](C)O)C(=O)N[C@@H](CC(=O)O)C(=O)N[C@@H](CCCCN)C(=O)N[C@H](C(=O)N[C@@H](CC(C)C)C(=O)N[C@@H](CCCNC(=N)N)C(=O)N1CCC[C@H]1C(=O)N[C@@H](CCC(N)=O)C(=O)NCC(=O)O)C(C)C [Compound 6] (H-RKKNFLEKLKEKLRTVITSHIDKVLRPQG-OH; lactam 3-7)	>64 µM	>64 µM	4 to 8 µM	–
CC[C@H](C)[C@H](NC(=O)[C@H](Cc1c[nH]cn1)NC(=O)[C@H](CO)NC(=O)[C@@H](NC(=O)[C@@H](NC(=O)[C@@H](NC(=O)[C@@H](NC(=O)[C@H](CCCNC(=N)N)NC(=O)[C@H](CC(C)C)NC(=O)[C@H](CCCCN)NC(=O)[C@H](CCC(=O)O)NC(=O)[C@H](CCCCN)NC(=O)[C@H](CC(C)C)NC(=O)[C@H](CCCCN)NC(=O)[C@@H]1CC(=O)NCCCC[C@H](NC(=O)[C@H](CCCCN)NC(=O)[C@@H](N)CCCNC(=N)N)C(=O)N[C@@H](CC(N)=O)C(=O)N[C@@H](Cc2ccccc2)C(=O)N[C@@H](CC(C)C)C(=O)N1)[C@@H](C)O)C(C)C)[C@@H](C)CC)[C@@H](C)O)C(=O)N[C@@H](CC(=O)O)C(=O)N[C@@H](CCCCN)C(=O)N[C@H](C(=O)N[C@@H](CC(C)C)C(=O)N[C@@H](CCCNC(=N)N)C(=O)N1CCC[C@H]1C(=O)N[C@@H](CCC(N)=O)C(=O)NCC(=O)O)C(C)C [Compound 7] (H-RKKNFLDKLKEKLRTVITSHIDKVLRPQG-OH; lactam 3-7)	>64 µM	>64 µM	–	–
CC[C@H](C)[C@H](NC(=O)[C@H](Cc1c[nH]cn1)NC(=O)[C@H](CO)NC(=O)[C@@H](NC(=O)[C@@H](NC(=O)[C@@H](NC(=O)[C@@H](NC(=O)[C@H](CCCNC(=N)N)NC(=O)[C@H](CC(C)C)NC(=O)[C@H](CCCCN)NC(=O)[C@H](CCC(=O)O)NC(=O)[C@H](CCCCN)NC(=O)[C@H](CC(C)C)NC(=O)[C@H](CCCCN)NC(=O)[C@@H]1CCNC(=O)C[C@H](NC(=O)[C@H](CCCCN)NC(=O)[C@@H](N)CCCNC(=N)N)C(=O)N[C@@H](CC(N)=O)C(=O)N[C@@H](Cc2ccccc2)C(=O)N[C@@H](CC(C)C)C(=O)N1)[C@@H](C)O)C(C)C)[C@@H](C)CC)[C@@H](C)O)C(=O)N[C@@H](CC(=O)O)C(=O)N[C@@H](CCCCN)C(=O)N[C@H](C(=O)N[C@@H](CC(C)C)C(=O)N[C@@H](CCCNC(=N)N)C(=O)N1CCC[C@H]1C(=O)N[C@@H](CCC(N)=O)C(=O)NCC(=O)O)C(C)C [Compound 8] (H-RKDNFL[Dab]KLKEKLRTVITSHIDKVLRPQG-OH; lactam 3-7)	>64 µM	>64 µM	4 to 8 µM	–
CC[C@H](C)[C@H](NC(=O)[C@H](Cc1c[nH]cn1)NC(=O)[C@H](CO)NC(=O)[C@@H](NC(=O)[C@@H](NC(=O)[C@@H](NC(=O)[C@@H](NC(=O)[C@H](CCCNC(=N)N)NC(=O)[C@H](CC(C)C)NC(=O)[C@H](CCCCN)NC(=O)[C@H](CCC(=O)O)NC(=O)[C@H](CCCCN)NC(=O)[C@H](CC(C)C)NC(=O)[C@H](CCCCN)NC(=O)[C@@H]1CCNC(=O)CC[C@H](NC(=O)[C@H](CCCCN)NC(=O)[C@@H](N)CCCNC(=N)N)C(=O)N[C@@H](CC(N)=O)C(=O)N[C@@H](Cc2ccccc2)C(=O)N[C@@H](CC(C)C)C(=O)N1)[C@@H](C)O)C(C)C)[C@@H](C)CC)[C@@H](C)O)C(=O)N[C@@H](CC(=O)O)C(=O)N[C@@H](CCCCN)C(=O)N[C@H](C(=O)N[C@@H](CC(C)C)C(=O)N[C@@H](CCCNC(=N)N)C(=O)N1CCC[C@H]1C(=O)N[C@@H](CCC(N)=O)C(=O)NCC(=O)O)C(C)C [Compound 9] (H-RKENFL[Dab]KLKEKLRTVITSHIDKVLRPQG-OH; lactam 3-7)	>64 µM	>64 µM	–	–
RKANFLAKLKEKLRTVITSHIDKVLRPQG [Compound 2]	>64 µM	>64 µM	4 to 8 µM	–
polymyxin B sulfate [reference compound]	–	–	–	Minimum Inhibitory Concentration ([4]; cation-adjusted Mueller-Hinton broth (CAMHB)): 1 µM; Minimum Inhibitory Concentration [4, 5]: 1 µM; MIC [3, 5]: 2 µM
